“Also recorded” adds a separate entry of the source.
Key:
[1] = test system: alkaline phosphatase; test: Alkaline phosphatase activity in valve interstitial cells exposed to calcifying medium; type: cell-based, human; details: VICs after exposition to calcifying medium
Protocol: (§1) Human valve interstitial cells (VICs) were isolated by collagenase digestion from explanted hearts during transplant procedures. Cells were cultured in DMEM containing 10% FBS, 2 mM L-glutamine and 1 mM sodium pyruvate (Invitrogen, Toronto, Ont, Canada). Cells were seeded in 12 well plates (2×10^4 cells/well). To provoke calcification, cells were incubated with a pro-calcifying medium containing: DMEM+5% FBS, 10^−7 M insulin, 50 μg/ml ascorbic acid and NaH2PO4 at 2 mM (in some experiments where it is specified NaH2PO4 was used at 1, 2 and 5 mM). […] In some experiments ARL 67156 (a competitive inhibitor of ENPP-1) (10 μM and 25 μM) was added to the growth medium Studies were conducted at day 0, 7, 14 in triplicate. For calcium quantification, cells were decalcified with 0.6 M HCl for 24 h. The calcium content of the HCl supernatants was determined using the o-cresolphthalein complexone method. After decalcification, cells were washed with PBS and solubilised with 0.1 N NaOH/0.1% SDS. The protein content was determined using Biorad® assay kit (Biorad, Mississauga, Ont, Canada). Cells calcium content was normalized to protein content.

[2] = test system: Human valve interstitial cells (VICs); test: In vitro calcification of valve interstitial cells (calcium content, o-cresolphthalein complexone method); type: cell-based; details: day 14 after treatment with calcifying medium; ARL 67156 10 μM and 25 μM
Protocol: as §1

[3] = target: T1, ENPP-1 (Homo sapiens, UniProt P22413); test: Phosphodiesterase activity in valve interstitial cells exposed to calcifying medium; type: cell-based; details: VICs, calcifying medium (NaH2PO4 2 mM), 14 days; ARL 67156 10 μM and 25 μM
T1 construct: endogenous in cells; host or cells: primary human valve interstitial cells (VICs)
T1 sequence (P22413 1-925): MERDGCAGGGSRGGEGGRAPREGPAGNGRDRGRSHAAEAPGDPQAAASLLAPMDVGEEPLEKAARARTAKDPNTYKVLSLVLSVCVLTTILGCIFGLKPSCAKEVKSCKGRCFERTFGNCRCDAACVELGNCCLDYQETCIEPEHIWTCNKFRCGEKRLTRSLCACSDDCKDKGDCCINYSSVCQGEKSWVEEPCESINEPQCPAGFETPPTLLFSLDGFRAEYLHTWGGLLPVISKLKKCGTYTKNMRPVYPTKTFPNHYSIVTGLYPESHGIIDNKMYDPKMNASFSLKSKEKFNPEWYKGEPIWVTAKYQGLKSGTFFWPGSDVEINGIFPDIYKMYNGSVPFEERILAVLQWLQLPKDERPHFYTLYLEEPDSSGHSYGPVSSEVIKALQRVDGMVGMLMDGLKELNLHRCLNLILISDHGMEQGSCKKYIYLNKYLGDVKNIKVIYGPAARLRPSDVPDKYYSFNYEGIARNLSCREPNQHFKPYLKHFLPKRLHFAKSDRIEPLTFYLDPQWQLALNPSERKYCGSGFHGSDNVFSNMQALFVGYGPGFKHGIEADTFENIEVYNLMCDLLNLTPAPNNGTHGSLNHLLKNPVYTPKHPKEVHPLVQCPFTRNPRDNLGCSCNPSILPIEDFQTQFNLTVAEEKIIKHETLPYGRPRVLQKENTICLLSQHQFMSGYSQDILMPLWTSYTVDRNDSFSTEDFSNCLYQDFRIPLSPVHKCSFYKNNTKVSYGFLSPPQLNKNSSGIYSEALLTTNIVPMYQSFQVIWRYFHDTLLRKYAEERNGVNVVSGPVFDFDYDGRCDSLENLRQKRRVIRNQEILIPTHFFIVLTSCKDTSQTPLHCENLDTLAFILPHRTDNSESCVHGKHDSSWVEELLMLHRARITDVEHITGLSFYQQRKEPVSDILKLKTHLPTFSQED
Protocol: Phosphodiesterase activity was measured using the substrate p-nitrophenyl phenylphosphonate (PNPP-PP) (Sigma, Oakville, Ont, Canada). Proteins were isolated from normal control valves (n=14), AS valves (n=18) or valve interstitial cells (VICs) and used for enzyme activity. Cells were harvested with trypsine-EDTA (Invitrogen, Toronto, Ont, Canada), washed 2 times in washing buffer (NaCl 0.15M, TRIS-HCl pH 8.1, 20 mM, CaCl2 1 mM) and resuspended in assay buffer (NaCl 0.15M, TRIS-HCl pH 8.1, 20 mM, CaCl2 0.5 mM, 1 mM p-nitrophenyl phenylphosphonate). The same amount of proteins isolated from tissues were washed twice in washing buffer and resuspended in 600 μl of assay buffer. […] Absorbance was measured at 400 nm. Results were calculated using a molar absorption coefficient for p-nitrophenol of 18320 M^−1 cm^−1. […]
Human valve interstitial cells (VICs) were isolated by collagenase digestion from explanted hearts during transplant procedures. […] For calcium quantification, cells were decalcified with 0.6 M HCl for 24 h. The calcium content of the HCl supernatants was determined using the o-cresolphthalein complexone method. […] The protein content was determined using Biorad® assay kit (Biorad, Mississauga, Ont, Canada). […]

[4] = test system: WVK rat model; test: Warfarin and vitamin K (WVK) rat model of aortic calcification; type: in vivo
Protocol: Animal experiments were approved by the Animal Care and Use Committee of Laval and Montreal Universities. Male Wistar rats (initial weight 200 g) were obtained from Charles River Breeding Laboratories (St Constant, Qc, Canada). The animals received warfarin (20 mg/kg/day in drinking water) and vitamin K (phylloquinone) (15 mg/kg/day subcutaneous injection) (WVK) (n=10) at day 1, 3, 5, 7, 14, 21, and 28. Dosages were adjusted every second day. Controls consisted of age-matched untreated rats (n=7). In two other groups of rats, ARL 67156 was administered at 0.55 μg/kg/day (n=10) and 1.1 μg/kg/day (n=10) during 28 days with osmotic pumps implanted subcutaneously. At day 28, animals were anesthetized with pentobarbital (65 mg/kg) for blood plasma sampling and the harvesting of aorta and heart. Segments of the aorta were frozen at −80° C. for the determination of calcium amount. The heart with the aortic root and valve was fixed in formaldehyde 10% for histological processing and immunohistology. […] Morphometric analyses of the aortic root (at the level of aortic valve and sinuses of Valsalva) were carried out using the Image-Pro Plus (MediaCybernetics, Bethesda, Md., USA) image analysis software to quantify the calcified areas (with the von Kossa staining) normalized to the total surface area of the section.

Which “alkaline phosphatase (ALP) activity” value [1] does the source give for CCN(CC)c1ncnc2c1ncn2C1OC(COP(=O)(O)OP(=O)(O)C(Br)(Br)P(=O)(O)O)[C@@H](O)[C@H]1O (some centres unmarked) [ARL 67156] here?
Its value is “did not affect; also recorded: not affected”.

And the “calcification of isolated VICs” value [2]?
Its value is “significantly reduced; also recorded: dose-dependently reduced”.

What about the phosphodiesterase activity [3] of the same molecule?
The phosphodiesterase activity was “dose-dependently decreased; also recorded: significantly reduced”.

What about the “calcification of the aortic root at the level of aortic cusp” value ([4]; rat treated with 1.1 μg/kg/d, von Kossa histology (FIG. 5F)) of the same molecule?
The value was “without calcification”.

What about the “calcification of the aortic valve cusps” value ([4]; rats under WVK regimen, 28 days, 0.55 μg/kg/d and 1.1 μg/kg/d by osmotic pump) of the same molecule?
Its value is “prevented the development of aortic valve calcifications; also recorded: not detected”.
